Source: patent US20230226008A1 (Massachusetts Eye and Ear Infirmary, priority 2020, published 2023)

Tests used:
[1] = test system: organotypic nasal polyp explants
P-gp = P-gp (Homo sapiens, UniProt P08183); settings: literature reference 29; cited from earlier work
Chain of P-gp (P08183 whole entry): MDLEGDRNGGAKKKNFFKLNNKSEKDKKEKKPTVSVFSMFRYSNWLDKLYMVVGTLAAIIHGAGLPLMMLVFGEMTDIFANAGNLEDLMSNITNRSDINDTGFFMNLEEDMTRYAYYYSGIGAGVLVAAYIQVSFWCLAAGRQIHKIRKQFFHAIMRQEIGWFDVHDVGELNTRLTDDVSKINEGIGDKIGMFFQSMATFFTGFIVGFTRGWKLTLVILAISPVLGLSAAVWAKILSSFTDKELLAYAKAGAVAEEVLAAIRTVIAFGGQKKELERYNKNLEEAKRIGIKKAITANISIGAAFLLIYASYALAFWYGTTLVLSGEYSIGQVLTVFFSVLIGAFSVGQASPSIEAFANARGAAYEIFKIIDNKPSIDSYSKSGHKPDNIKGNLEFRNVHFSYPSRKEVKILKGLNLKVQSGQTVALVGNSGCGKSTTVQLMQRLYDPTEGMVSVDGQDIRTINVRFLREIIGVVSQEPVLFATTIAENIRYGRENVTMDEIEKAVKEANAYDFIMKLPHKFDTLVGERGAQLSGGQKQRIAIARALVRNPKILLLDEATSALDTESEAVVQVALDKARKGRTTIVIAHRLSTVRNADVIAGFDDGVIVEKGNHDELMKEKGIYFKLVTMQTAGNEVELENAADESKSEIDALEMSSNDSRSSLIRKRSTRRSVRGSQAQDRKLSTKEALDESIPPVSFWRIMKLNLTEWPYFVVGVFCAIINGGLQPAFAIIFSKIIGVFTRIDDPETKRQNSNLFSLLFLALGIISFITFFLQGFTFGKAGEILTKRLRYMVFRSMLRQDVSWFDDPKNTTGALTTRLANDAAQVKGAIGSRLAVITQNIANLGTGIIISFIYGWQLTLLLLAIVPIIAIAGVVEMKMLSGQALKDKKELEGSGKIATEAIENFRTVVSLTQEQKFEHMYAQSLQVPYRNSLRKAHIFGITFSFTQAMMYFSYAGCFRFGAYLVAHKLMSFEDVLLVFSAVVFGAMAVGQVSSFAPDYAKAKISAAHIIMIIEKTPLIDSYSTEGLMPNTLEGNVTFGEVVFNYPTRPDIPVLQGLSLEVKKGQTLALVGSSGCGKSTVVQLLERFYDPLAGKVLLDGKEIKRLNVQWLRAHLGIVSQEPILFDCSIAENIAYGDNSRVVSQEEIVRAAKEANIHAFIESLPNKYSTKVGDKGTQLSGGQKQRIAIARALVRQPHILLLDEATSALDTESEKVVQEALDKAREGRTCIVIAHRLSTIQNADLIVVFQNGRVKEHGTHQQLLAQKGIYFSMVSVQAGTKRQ

tissue mometasone retention in polyps versus lower P-gp expressing turbinates [1]	reduction in mometasone retention between the lowest and highest P-gp expressing polyp explants ([1]; human, not told, 60 min) [fold]	P-gp substrate status ([1]; not told)	Compound	affinity for P-gp (P-gp)
significantly lower	~6	substrate of P-gp	C[C@@H]1C[C@H]2[C@@H]3CCC4=CC(=O)C=C[C@]4(C)[C@@]3(Cl)[C@@H](O)C[C@]2(C)[C@@]1(OC(=O)c1ccco1)C(=O)CCl [mometasone, [(8S,9R,10S,11S,13S,14S,16R,17R)-9-chloro-17-(2-chloroacetyl)-11-hydroxy-10,13,16-trimethyl-3-oxo-6,7,8,11,12,14,15,16-octahydrocyclopenta[a]phenanthren-17-yl]furan-2-carboxylate]	
			CCCC1O[C@@H]2C[C@H]3[C@@H]4CCC5=CC(=O)C=C[C@]5(C)[C@H]4[C@@H](O)C[C@]3(C)[C@]2(C(=O)CO)O1 (stereo partly shown) [budesonide]	high affinity
